Experiments:
[1] = biological target: soluble human BACE1 catalytic domain (Homo sapiens (Human), UniProt P56817); test: BACE1 HTRF FRET Assay; type: biochemical; settings: for Ki: Ki calculated from IC50 using the Cheng-Prusoff equation
Text: A homogeneous time-resolved FRET assay can be used to determine IC50 values for inhibitors of the soluble human BACE1 catalytic domain. This assay monitors the increase of 620 nm fluorescence that resulted from BACE1 cleavage of an APPswedish APP^swe mutant peptide FRET substrate (QSY7-[…]-Europium-amide). This substrate contains an N-terminal QSY7 moiety that serves as a quencher of the C-terminal Europium fluorophore (620 nm Em). In the absence of enzyme activity, 620 nm fluorescence is low in the assay and increased linearly over 3 hours in the presence of uninhibited BACE1 enzyme Inhibition of BACE1 cleavage of the QSY7-APP^swe-Eu substrate by inhibitors is manifested as a suppression of 620 nm fluorescence.
Reactions are initiated by addition of 10 μl of 600 nM QSY7-APP^swe-Eu substrate (200 nM final) to give a final reaction volume of 30 μl in a 384 well Nunc HTRF plate. The reactions are incubated at 30° C. for 1.5 hours. The 620 nm fluorescence is then read on a Rubystar HTRF plate reader (BMG Labtechnologies) using a 50 millisecond delay followed by a 400 millisecond acquisition time window Inhibitor IC50 values are derived from non-linear regression analysis of concentration response curves.

[2] = biological target: purified human autoBACE-2 (Homo sapiens (Human), UniProt Q9Y5Z0); test: BACE-2 Assay (BACE-HTRF assay); type: biochemical; settings: Ki calculated from IC50 using the Cheng-Prusoff equation; read-out: BACE2 Ki
Protocol: Inhibitor IC50s at purified human autoBACE-2 are determined in a time-resolved endpoint proteolysis assay that measures hydrolysis of the QSY7-[…]-Eu-amide FRET peptide substrate (BACE-HTRF assay). […] DMSO is present at 5% final concentration in the assay. Following laser excitation of sample wells at 320 nm, the fluorescence signal at 620 nm is collected for 400 ms following a 50 μs delay on a RUBYstar HTRF plate reader (BMG Labtechnologies). Raw RFU data is normalized to maximum (1.0 nM BACE/DMSO) and minimum (no enzyme/DMSO) RFU values. […] The Ki values are calculated from the IC50 using the Cheng-Prusoff equation.

Sequence of soluble human BACE1 catalytic domain (P56817 75-416): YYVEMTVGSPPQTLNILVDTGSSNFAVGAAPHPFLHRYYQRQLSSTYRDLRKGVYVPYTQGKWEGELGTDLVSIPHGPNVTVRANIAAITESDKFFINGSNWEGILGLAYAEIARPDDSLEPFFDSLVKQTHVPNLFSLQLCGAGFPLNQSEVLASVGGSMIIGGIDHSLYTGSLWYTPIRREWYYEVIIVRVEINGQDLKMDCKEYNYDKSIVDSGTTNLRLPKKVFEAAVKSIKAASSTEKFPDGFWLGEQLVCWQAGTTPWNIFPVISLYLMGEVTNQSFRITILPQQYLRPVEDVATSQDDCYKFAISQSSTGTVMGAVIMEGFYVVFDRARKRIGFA
Sequence of purified human autoBACE-2 (Q9Y5Z0 63-473 limits assumed): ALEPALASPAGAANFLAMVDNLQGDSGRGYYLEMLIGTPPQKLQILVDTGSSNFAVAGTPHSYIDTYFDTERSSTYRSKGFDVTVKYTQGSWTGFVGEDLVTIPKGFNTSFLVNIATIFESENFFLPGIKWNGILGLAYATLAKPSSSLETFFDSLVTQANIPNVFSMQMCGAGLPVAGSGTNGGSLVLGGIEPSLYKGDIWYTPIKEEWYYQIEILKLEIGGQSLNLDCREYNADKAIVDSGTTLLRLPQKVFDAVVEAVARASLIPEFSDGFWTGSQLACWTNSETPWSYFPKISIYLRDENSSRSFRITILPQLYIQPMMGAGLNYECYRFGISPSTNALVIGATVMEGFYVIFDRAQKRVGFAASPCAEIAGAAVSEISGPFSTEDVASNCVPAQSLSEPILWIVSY

Structure (SMILES)	Ki [1]	Ki [2]	inhibition at 1 µM ([1]; read-out: BACE1 % Inh. at 1 μM)	inhibition at 10 µM ([1]; read-out: BACE1 % Inh. at 10 μM)
COc1cnc(C(=O)Nc2ccc(F)c([C@]3(C)CS(=O)(=O)C4(CCOCC4)C(=N)N3)c2)cn1 [Example 32]	16.3 nM	< 50 nM	–	–
C[C@@]1(c2sc(C(=O)Nc3cccc(Cl)n3)cc2Cl)CS(=O)(=O)C2(CC2)C(=N)N1 [Example 79b]	17 nM	4 nM	–	–
COc1ccc(C(=O)Nc2ccc(F)c([C@]3(C)CS(=O)(=O)C4(CCCC4)C(=N)N3)c2)nc1 [Example 15]	5.2 nM	0.6 nM	–	–
C[C@@]1(c2cc(NC(=O)c3ccc(C(F)(F)F)cn3)ccc2F)CS(=O)(=O)C2(CCOCC2)C(=N)N1 [Example 34]	19.8 nM	< 50 nM	–	–
C[C@@]1(c2sc(Br)cc2Cl)CS(=O)(=O)C2(CC2)C(=N)N1	912 nM	465 nM	–	–
C[C@@]1(c2cc(NC(=O)c3ccc(Cl)cn3)ccc2F)CS(=O)(=O)[C@@]2(CCOC2)C(=N)N1 [Example 63c]	5.9 nM	1.3 nM	–	–
C[C@@]1(c2sc(-c3cncc(C#N)c3)cc2Cl)CS(=O)(=O)C2(CCCC2)C(=N)N1 [Example 42]	18.3 nM	3.4 nM	–	–
C[C@@]1(c2cc(NC(=O)c3ccc(C(F)(F)F)cn3)ccc2F)CS(=O)(=O)C2(CCCC2)C(=N)N1 [Example 14]	2.2 nM	2.1 nM	–	–
C[C@@]1(c2cc(N)ccc2F)CS(=O)(=O)C2(CC2)C(=N)N1	4900 nM	1860 nM	–	–
COc1cc(C#N)cc(-c2cc(Cl)c([C@]3(C)CS(=O)(=O)C4(CCOCC4)C(=N)N3)s2)c1 [Example 57]	161 nM	< 20 nM	–	–
C[C@@]1(c2sc(Br)cc2Cl)CS(=O)(=O)C2(CCCCC2)C(=N)N1	2610 nM	715 nM	–	–
COc1cnc(C(=O)Nc2ccc(F)c([C@]3(C)CS(=O)(=O)C4(CCCCC4)C(=N)N3)c2)cn1 [Example 27]	36 nM	< 50 nM	–	–
C[C@@]1(c2cc(NC(=O)c3cn4ncsc4n3)ccc2F)CS(=O)(=O)C2(CCCC2)C(=N)N1 [Example 19]	18.4 nM	< 20 nM	–	–
C[C@@]1(c2cc(NC(=O)c3cnsn3)ccc2F)CS(=O)(=O)C2(CCCC2)C(=N)N1 [Example 23]	108 nM	3.1 nM	–	–
C[C@@]1(c2cc(NC(=O)c3ccc(F)cn3)ccc2F)CS(=O)(=O)C2(CC2)C(=N)N1 [Example 3]	5.5 nM	0.9 nM	–	–
COc1cccc2cc(-c3cc(Cl)c([C@]4(C)CS(=O)(=O)[C@@]5(CCOC5)C(=N)N4)s3)[nH]c12 [Example 63f]	14.2 nM	1.5 nM	–	–

Structure (SMILES)	Ki [1]	Ki [2]	inhibition at 1 µM ([1]; read-out: BACE1 % Inh. at 1 μM)	inhibition at 10 µM ([1]; read-out: BACE1 % Inh. at 10 μM)
COc1cccc2cc(-c3cc(Cl)c([C@]4(C)CS(=O)(=O)C5(CC5)C(=N)N4)s3)[nH]c12 [Example 64]	10 nM	1 nM	–	–
C[C@@]1(c2cc(NC(=O)c3ccc(Cl)cn3)ccc2F)CS(=O)(=O)C2(CC2)C(=N)N1 [Example 1]	1.6 nM	0.4 nM	–	–
C[C@@]1(c2cc(NC(=O)c3ncc(F)cc3F)ccc2F)CS(=O)(=O)C2(CC2)C(=N)N1 [Example 4]	5 nM	0.5 nM	–	–
C[C@@]1(c2sc(-c3ccnc(-c4ccco4)c3)cc2Cl)CS(=O)(=O)[C@]2(CCOC2)C(=N)N1 [Example 62l]	45.3 nM	2.2 nM	–	–
C[C@@]1(c2cc(NC(=O)c3ccc(C#N)cn3)ccc2F)CS(=O)(=O)[C@@]2(CCOC2)C(=N)N1 [Example 63d]	5.2 nM	< 20 nM	–	–
C[C@@]1(c2cc(NC(=O)c3ccc(C(F)(F)F)cn3)ccc2F)CS(=O)(=O)C2(CCCCC2)C(=N)N1 [Example 29]	23.3 nM	< 50 nM	–	–
C[C@@]1(c2cc(Br)ccc2F)CS(=O)(=O)C2(CCCC2)C(=N)N1	–	935 nM	42%	–
C[C@@]1(c2cc(NC(=O)c3ccc(F)cn3)ccc2F)CS(=O)(=O)C2(CCC(O)C2)C(=N)N1 (single isomer, unassigned) [Example 76a]	9.3 nM	2.4 nM	–	–
C[C@@]1(c2sc(-c3cncc(C#N)c3)cc2Cl)CS(=O)(=O)C2(CCOCC2)C(=N)N1 [Example 50]	130 nM	< 50 nM	–	–
CC(C)(C)C#Cc1cc(Cl)c([C@]2(C)CS(=O)(=O)C3(CCC3)C(=N)N2)s1 [Example 77a]	165 nM	< 20 nM	–	–
C[C@@]1(c2sc(-c3cccc(-c4nnco4)c3)cc2Cl)CS(=O)(=O)C2(CCC2)C(=N)N1 [Example 61a]	18.6 nM	< 50 nM	–	–
C[C@@]1(c2cc(NC(=O)c3ccno3)ccc2F)CS(=O)(=O)[C@]2(CCOC2)C(=N)N1 [Example 81b]	300 nM	–	–	–
C[C@@]1(c2sc(-c3ccnc(-c4cccs4)c3)cc2Cl)CS(=O)(=O)[C@@]2(CCOC2)C(=N)N1 [Example 63m]	986 nM	–	–	–
C[C@@]1(c2sc(C(=O)NCc3cccc(F)c3)cc2Cl)CS(=O)(=O)C2(CCCCC2)C(=N)N1 [Example 80d]	5120 nM	–	–	–
C[C@@]1(c2cc(NC(=O)c3ncccc3C(F)(F)F)ccc2F)CS(=O)(=O)[C@]2(CCOC2)C(=N)N1 [Example 81ab]	146 nM	–	–	–

Results, then the compound that gave them:

Ki [1]	Ki [2]	inhibition at 1 µM ([1]; read-out: BACE1 % Inh. at 1 μM)	inhibition at 10 µM ([1]; read-out: BACE1 % Inh. at 10 μM)	Structure (SMILES)
305 nM	< 20 nM	–	–	C[C@@]1(c2sc(-c3ccnc(-c4cccs4)c3)cc2Cl)CS(=O)(=O)[C@]2(CCOC2)C(=N)N1 [Example 62k]
192 nM	< 50 nM	–	–	C[C@@]1(c2sc(-c3cncc(C#N)c3)cc2Cl)CS(=O)(=O)[C@@]2(CCOC2)C(=N)N1 [Example 63e]
447 nM	134 nM	–	–	C[C@@]1(c2sc(Br)cc2Cl)CS(=O)(=O)C2(CCCC2)C(=N)N1
227 nM	< 50 nM	–	–	C[C@@]1(c2sc(C(=O)Nc3cccc(F)n3)cc2Cl)CS(=O)(=O)C2(CC2)C(=N)N1 [Example 79c]
10.9 nM	2.1 nM	–	–	C[C@@]1(c2cc(NC(=O)c3ccc(F)cn3)ccc2F)CS(=O)(=O)C2(CCOCC2)C(=N)N1 [Example 30]
25.4 nM	< 20 nM	–	–	COc1cnc(C(=O)Nc2ccc(F)c([C@]3(C)CS(=O)(=O)[C@]4(CCOC4)C(=N)N3)c2)cn1 [Example 62]
19.8 nM	2 nM	–	–	COc1cccc2cc(-c3cc(Cl)c([C@]4(C)CS(=O)(=O)C5(CCOCC5)C(=N)N4)s3)[nH]c12 [Example 48]
30 nM	< 20 nM	–	–	Cc1cccc(NC(=O)c2cc(Cl)c([C@]3(C)CS(=O)(=O)C4(CC4)C(=N)N3)s2)n1 [Example 79d]
37 nM	< 20 nM	–	–	COc1ccc(C(=O)Nc2ccc(F)c([C@]3(C)CS(=O)(=O)C4(CCCCC4)C(=N)N3)c2)nc1 [Example 26]
110 nM	< 50 nM	–	–	C[C@@]1(c2sc(C#CC3CCCC3)cc2Cl)CS(=O)(=O)C2(CCC2)C(=N)N1 [Example 77b]
8 nM	1.9 nM	–	–	C[C@@]1(c2cc(NC(=O)c3ccc(Cl)cn3)ccc2F)CS(=O)(=O)C2(CCC2)C(=N)N1 [Example 6]
6120 nM	2670 nM	–	–	C[C@@]1(c2cc([N+](=O)[O-])ccc2F)CS(=O)(=O)[C@@]2(CCOC2)C(=N)N1
32 nM	4.4 nM	–	–	C[C@@]1(c2cc(NC(=O)c3ccc(F)cn3)ccc2F)CS(=O)(=O)C2(CCCCC2)C(=N)N1 [Example 25]
56.7 nM	2.8 nM	–	–	C[C@@]1(c2sc(-c3cncc(-c4ncco4)c3)cc2Cl)CS(=O)(=O)[C@]2(CCOC2)C(=N)N1 [Example 62h]
4.2 nM	< 20 nM	–	–	COc1cnc(C(=O)Nc2ccc(F)c([C@]3(C)CS(=O)(=O)C4(CC4)C(=N)N3)c2)cn1 [Example 2]
3630 nM	3200 nM	–	–	C[C@@]1(c2cc([N+](=O)[O-])ccc2F)CS(=O)(=O)C2(CCC2)C(=N)N1
–	3820 nM	–	38%	C[C@@]1(c2cc(N)ccc2F)CS(=O)(=O)[C@@]2(CCOC2)C(=N)N1
7020 nM	3580 nM	–	–	C[C@@]1(c2cc(N)ccc2F)CS(=O)(=O)C2(CCOCC2)C(=N)N1
3.6 nM	1.5 nM	–	–	COc1cnc(C(=O)Nc2ccc(F)c([C@]3(C)CS(=O)(=O)C4(CCCC4)C(=N)N3)c2)cn1 [Example 17]
–	< 20 nM	–	–	C[C@@]1(c2cc(NC(=O)c3ccc(Cl)cn3)ccc2F)CS(=O)(=O)C2(CCCCC2)C(=N)N1 [Example 24]
1780 nM	–	–	–	CCc1cncc(-c2cc(Cl)c([C@]3(C)CS(=O)(=O)[C@@]4(CCOC4)C(=N)N3)s2)c1 [Example 63i]
8560 nM	–	–	–	C[C@@]1(c2cc(-n3cc(-c4cccnc4)nn3)ccc2F)CS(=O)(=O)C2(CCC2)C(=N)N1 [Example 39b]
249 nM	–	–	–	C[C@@]1(c2sc(C(=O)NCc3cnoc3)cc2Cl)CS(=O)(=O)C2(CCCCC2)C(=N)N1 [Example 80]
1250 nM	–	–	–	C[C@@]1(c2cc(NC(=O)C3CC3(F)F)ccc2F)CS(=O)(=O)[C@]2(CCOC2)C(=N)N1 (stereo partly drawn) [Example 81s]
313 nM	–	–	–	CC(F)(F)C(=O)Nc1ccc(F)c([C@]2(C)CS(=O)(=O)[C@]3(CCOC3)C(=N)N2)c1 [Example 81ad]

— US9181236B2, “2-spiro-substituted iminothiazines and their mono-and dioxides as bace inhibitors, compositions and their use” (Merck Sharp & Dohme Corp., priority 2011, dated 2015)
